Measured values: patent US4994473A, “Pyridyl containing insecticides” (ICI Americas Inc., priority 1988, dated 1991)

Key:
[1] = tested on: Musca domestica; experiment: Housefly contact test, mortality after 48 hours; format: in vivo, Housefly Musca domestica; settings: μg of the test compound per 25 female flies
Procedure: (§1) The compounds in Table I above were tested for insecticidal activity using the following testing procedures. LC50 values, based on the results of these tests and calculated according to dosage-mortality curves, are expressed in Table II.
The test compound was diluted in acetone and aliquots pipetted onto the bottom of aluminum dishes. To ensure even spreading of the chemical on the bottom of the dishes, 1 ml of acetone containing 0.01% peanut oil was also added to each dish. After all solvents had evaporated, the dishes were placed in circular cardboard cages containing 25 female houseflies, 1-2 days old. The cages were covered on the bottom with cellophane and on the top with tulle netting, and each contained a sugar-water saturated cotton plug for maintenance of the flies. Mortality was recorded after 48 hours. Test levels ranged from 100 μg/25 female houseflies downward. The LC-50 value is expressed below in Table II under the heading "HF", in terms of μg of the test compound per 25 female flies.

[2] = tested on: Tetranychus urticae; experiment: Two-spotted mite acaricidal test on pinto bean plants; format: in vivo, two-spotted mite Tetranychus urticae (Koch); settings: percent concentration in solution, 5-7 days; for LC50 2-SM A: adults; for LC50 2-SM E: eggs
Source text: Acaricidal Evaluation Test
The two-spotted mite (2SM) [Tetranychus urticae (Koch)]was employed in tests for miticides. The test procedure was as follows:
Pinto bean plants (Phaseolus sp.) approximately 10 cm tall, were transplanted into sandy loam soil in small cups and thoroughly infested with two-spotted mites of mixed ages and sexes. Twenty-four hours later the infested plants were inverted and dipped for 2-3 seconds in 50--50 acetone-water solutions of the test compound. Treated plants were held in the greenhouse, and 5-7 days later mortality was determined for both adult mites and the nymphs hatching from eggs which were on the plants at the time of treatment. Test concentrations ranged from 0.05% downward. The LC-50 value is expressed below in Table II under the headings "2SM-A" (i.e., adults) and "2SM-E" (i.e. eggs) in terms of percent concentration of the test compound in the solution.

[3] = tested on: Heliothis virescens; experiment: Tobacco budworm egg dip test; format: in vivo, Tobacco Budworm Heliothis virescens (Fabricius); settings: 2-day old eggs (TBW-E), percent of test compound in solution
Procedure: as §1
Tobacco Budworm Heliothis virescens (Fabricius)
Eggs: Paper towel patches of 2-day old eggs of the tobacco budworm were dipped in acetone solutions of the test compound and placed in petri dishes containing a portion of larval rearing medium. Treated eggs were maintained at 78° F. and mortality was recorded after all control eggs had hatched and the young larvae were feeding on the media. Test concentrations ranged from 0.1% downward. The LC-50 value is expressed below in Table II under the heading "TBW-E" in terms of percent of the test compound in the solution.

[4] = tested on: Trichoplusia ni; experiment: Cabbage looper larvae leaf-dip test; format: in vivo, Cabbage Looper Trichoplusia ni (Hubner); settings: second instar larvae, percent of test compound in solution, 3-5 days
Procedure: as §1
Cabbage Looper Trichoplusia ni (Hubner)
The test compound was diluted in a 50--50 acetone-water solution Cotyledons of hyzini squash (Calabacita abobrinha), approximately 1×1.5 inches, were immersed in the test solutions for 2-3 seconds and placed on a wire screen to dry. The dried leaves were p1aced in petri dishes containing a moistened piece of filter paper and infested with 5 secondinstar cabbage looper larvae. The dishes were placed in a high humidity chamber. Mortality of the larvae was recorded 3-5 days later. Test concentrations ranged from 0.1% downward. The LC-50 value is expressed below in Table II under the heading "CL" in terms of percent of the test compound in solution.

[5] = tested on: Diabrotica undecimpunctata undecimpunctata; experiment: Western spotted cucumber beetle larvae soil test; format: in vivo; settings: Diabrotica eggs/larvae; ppm of the test compound in the soil
Procedure: as §1
Western Spotted Cucumber Beetle Larvae Diabrotica undecimpunctata undecimpunctata (Mannherheim)
Ten grams of moist potting soil was placed in a plastic cup. The test compound was dissolved in acetone. A 0.05 ml aliquot of the test sample, diluted to the desired concentration, was added to the soil. The cup was capped and the soil was mixed on a vortex mixer for approximately 15 seconds. An indentation was made on the surface of the soil and approximately 50 Diabrotica eggs were added. The eggs were covered with soil and maintained at room temperature (approximately 70° F. or 21° C.). Four days later a section of Romaine lettuce (Latuca sativa) leaf was placed in the treated cups. One week later the cups were examined for live larvae. Test concentrations ranged from 25 ppm downward. The LC-50 value is expressed below in Table II under the heading "Diabrotica" in terms of ppm of the test compound in the soil.

CC(C)C(=Nc1ccc2ncccc2c1)OCc1cccc(Oc2ccccc2)c1 [Compound 16]
LC50 HF [1]: 59 µg | LC50 2-SM A [2]: > 0.05% | LC50 2-SM E [2]: > 0.05% | LC50 TBW [3]: > 0.1% | LC50 CL [4]: 0.025% | LC50 Diabrotica [5]: > 25 ppm

CC(C)C(=Nc1cnc2ccccc2c1)OCc1cccc(Oc2ccccc2)c1 [Compound 17]
LC50 HF [1]: 36 µg | LC50 2-SM A [2]: > 0.05% | LC50 2-SM E [2]: > 0.05% | LC50 TBW [3]: > 0.1% | LC50 CL [4]: 0.05% | LC50 Diabrotica [5]: > 25 ppm

CC(C)C(=Nc1ccc2ncoc2c1)OCc1cccc(Oc2ccccc2)c1 [Compound 18]
LC50 HF [1]: 8 µg | LC50 2-SM A [2]: > 0.05% | LC50 2-SM E [2]: > 0.05% | LC50 TBW [3]: > 0.1% | LC50 CL [4]: 0.009% | LC50 Diabrotica [5]: > 25 ppm

CC(C)C(=Nc1ccc2ocnc2c1)OCc1cccc(Oc2ccccc2)c1 [Compound 19]
LC50 HF [1]: 10 µg | LC50 2-SM A [2]: > 0.05% | LC50 2-SM E [2]: > 0.05% | LC50 TBW [3]: > 0.1% | LC50 CL [4]: 0.04% | LC50 Diabrotica [5]: > 25 ppm

CC(C)C(=Nc1ccc2ncsc2c1)OCc1cccc(Oc2ccccc2)c1 [Compound 20]
LC50 HF [1]: 6 µg | LC50 CL [4]: 0.009%

CC(C)C(=Nc1ccc2nc(C(C)C)sc2c1)OCc1cccc(Oc2ccccc2)c1 [Compound 21]
LC50 HF [1]: > 100 µg | LC50 2-SM A [2]: > 0.05% | LC50 2-SM E [2]: > 0.05% | LC50 TBW [3]: > 0.1% | LC50 CL [4]: 0.05% | LC50 Diabrotica [5]: > 25 ppm

CC(C)C(=Nc1ccc(Cl)nc1)OCc1cccc(Oc2ccc(F)cc2)c1 [Compound 22]
LC50 HF [1]: 9 µg | LC50 2-SM A [2]: > 0.05% | LC50 2-SM E [2]: > 0.05% | LC50 TBW [3]: 0.05% | LC50 CL [4]: 0.001% | LC50 Diabrotica [5]: > 25 ppm

CC(C)C(=Nc1ccc(Cl)nc1)NCc1cccc(Oc2ccccc2)c1 [Compound 23]
LC50 HF [1]: > 100 µg | LC50 2-SM A [2]: > 0.05% | LC50 2-SM E [2]: > 0.05% | LC50 TBW [3]: > 0.1% | LC50 CL [4]: 0.1% | LC50 Diabrotica [5]: > 25 ppm

Cc1nc2cc(N=C(OCc3cccc(Oc4ccccc4)c3)C(C)C)ccc2o1 [Compound 24]
LC50 HF [1]: > 100 µg | LC50 2-SM A [2]: > 0.05% | LC50 2-SM E [2]: > 0.05% | LC50 TBW [3]: > 0.1% | LC50 CL [4]: 0.0075% | LC50 Diabrotica [5]: > 25 ppm

Cc1nc2ccc(N=C(OCc3cccc(Oc4ccccc4)c3)C(C)C)cc2o1 [Compound 25]
LC50 HF [1]: 38 µg | LC50 2-SM A [2]: > 0.05% | LC50 2-SM E [2]: > 0.05% | LC50 TBW [3]: > 0.1% | LC50 CL [4]: 0.0075% | LC50 Diabrotica [5]: > 25 ppm

CC(C)C(=Nc1ccc(Cl)nc1)OCc1ccc(F)c(Oc2ccc(F)cc2)c1 [Compound 31]
LC50 HF [1]: 7.5 µg | LC50 2-SM A [2]: > 0.05% | LC50 2-SM E [2]: > 0.05% | LC50 TBW [3]: 0.45% | LC50 CL [4]: 0.0016% | LC50 Diabrotica [5]: > 25 ppm

CC(C)C(=Nc1ccc(Cl)nc1)OCc1ccc(F)c(Oc2ccc(Cl)cc2)c1 [Compound 32]
LC50 HF [1]: 22 µg | LC50 2-SM A [2]: > 0.05% | LC50 2-SM E [2]: 0.05% | LC50 TBW [3]: 0.03% | LC50 CL [4]: 0.00075% | LC50 Diabrotica [5]: > 25 ppm

CC(C)C(=Nc1cc(C(F)(F)F)ccn1)OCc1cccc(Oc2ccccc2)c1 [Compound 34]
LC50 HF [1]: > 100 µg | LC50 2-SM A [2]: > 0.05% | LC50 2-SM E [2]: > 0.05% | LC50 TBW [3]: > 0.1% | LC50 CL [4]: 0.018% | LC50 Diabrotica [5]: > 25 ppm

CC(C)C(=Nc1cncc(C(F)(F)F)c1)OCc1cccc(Oc2ccc(F)cc2)c1 [Compound 35]
LC50 HF [1]: 23 µg | LC50 2-SM A [2]: > 0.05% | LC50 2-SM E [2]: > 0.05% | LC50 TBW [3]: 0.1% | LC50 CL [4]: 0.001% | LC50 Diabrotica [5]: > 25 ppm
